One data set addresses Syk (Homo sapiens, UniProt P43405). Kind of data set: Kinase profiler assay, Syk. The class given is biochemical. The settings on record: 10 concentrations, 100 µM highest; Table S3. The procedure: (§1) The effects of LLL12 on twenty six purified human protein kinases were performed at the Millipore UK Limited (Dundee, UK) and Reaction Biology Corp. (Malvern, PA) using the Kinase profiler assay. Assays contained a peptide substrate, purified recombinant human protein kinases to be tested, and gamma-labeled ATP, magnesiumion. Radioactive phosphorylated product was measured and quantitated via a scintillation counter.

Another data set concerns STAT3 target genes. Kind of data set: RT-PCR of STAT3 downstream target genes in ALDH+ cells. The settings on record: 5 µM, 24 h. It is filed as cell-based, human. How it is done: (§2) The ALDH^+ and ALDH^+/CD44^+/CD24^− subpopulations of breast cancer cells were treated with LLL12 (5 µM) or DMSO for 24 h. RNA from the cells was then collected using RNeasy Kits (Qiagen). cDNA was constructed from a 500 ng sample of RNA using Omniscript RT (Qiagen). Primer sequences and source information can be found in Table S1. The intensity of bands was quantified and normalized to GAPDH.

A further data set deals with Bmx (Homo sapiens, UniProt P51813). Kind of data set: Kinase profiler assay, Bmx. The settings on record: 10 concentrations, 100 µM highest; Table S3. It is filed as biochemical. The procedure: as §1
Data set [1] deals with ALDH+ subpopulation in MDA-MB-231, SUM159, and SK-BR3 cancer cells. Kind of data set: ALDEFLUOR assay, percentage of ALDH+ subpopulation. The settings on record: un-separated MDA-MB-231, SUM159, SK-BR3; LLL12 5 µmol/L or Stattic 10 µM, 24 hours. The class given is cell-based, human. The procedure: (§3) The ALDEFLUOR kit (StemCell Technologies) was used to isolate the population with high ALDH enzymatic activity as previously described. Briefly, cells were trypsinized to single cells using 0.05% trypsin and subsequently suspended in ALDEFLUOR assay buffer containing ALDH substrate (BAAA, 1 µmol/l per 1×10^6 cells) and then incubated for 40 minutes at 37°C. For each sample, an aliquot of cells was stained under identical conditions with 15 mmol/L diethylaminobenzaldehyde (DEAB), a specific ALDH inhibitor, as an ALDH^− control. Anti-human PE-CD24 and PE-Cy5-CD44 antibody (BioLegend) were used for CD44/CD24 identification and to separate ALDH^+/CD44^+/CD24^− and ALDH^−/CD44^+/CD24^+ cells when combined with ALDH staining. Analysis was performed using a FACStarPLUS (Becton Dickinion) flow cytometer. To assess the effect of STAT3 inhibitors on the subpopulation of ALDH^+ cells, un-separated breast cancer cells were treated with 5 µmol/L of LLL12 or 10 µmol/L Stattic for 24 hours prior to performing the ALDEFLUOR assay.

Data set [2] deals with ALDH+ subpopulations of SK-BR-3, MDA-MB-231, and SUM159. Kind of data set: Tumorsphere formation, ALDH+ subpopulations. The class given is cell-based, human. The settings on record: 2.5–10 µmol/L, 10 to 15 days. The procedure: ALDH^+ and ALDH^+/CD44^+/CD24^− cells were plated as single cells in ultra-low attachment six-well plates at a density of 250, 500, 1000 or 50,000 viable cells/well as previously described. On the second day after seeding, the ALDH^+ cancer cells were treated with 2.5–10 µmol/L of LLL12 or Stattic. For tumorsphere forming capacity assay, ALDH^+ or ALDH^− cells were plated as single cells in ultra-low attachment six-well plates at a density of 250, 500 or 1000 viable cells/well. Tumorsphere growth was observed under a microscope 10 to 15 days later.

The next data set has as its target mTOR (Homo sapiens, UniProt P42345). Kind of data set: Kinase profiler assay, mTOR. The settings on record: bound stated jointly for the other protein kinases; Table S3. It is filed as biochemical. How it is done: as §1
The subject of the next data set is STAT3-regulated genes. Kind of data set: RT-PCR of STAT3-regulated genes in ALDH+/CD44+/CD24− cells. It is filed as cell-based, human. The conditions noted are these: 5 µM, 24 h. How it is done: as §2
The next data set concerns the target Yes (Homo sapiens, UniProt P07947). The data set can be described thus: Kinase profiler assay, Yes. It is filed as biochemical. The settings on record: 10 concentrations, 100 µM highest; Table S3. The procedure:
as §1

The subject of data set [3] is SUM159 ALDH+ breast cancer stem-like cells. Kind of data set: Mouse mammary fat pad model with SUM159 ALDH+ cells. It is filed as in vivo, NOD/SCID mice. The conditions noted are these: 5 mg/kg IP daily.
Experimental: For mammary fat pad experiments, 1×10^5 of sorted SUM159 ALDH^+ cells, assessed using Aldefluor kit (StemCell Technologies) were injected into the humanized fat pads of NOD/SCID mice (The Jackson Laboratory), as previously described [5]. […] Tumors were measured by a caliper and the volume was calculated using V = π (width^2×length)/6. After 15 days of treatments with LLL12 or vehicle control, tumors were harvested from euthanized mice, snap-frozen in liquid nitrogen, and stored in −80°C. […] The rest of tumors tissues were homogenized to examine the expression of STAT3 phosphorylation by western blot.
In another data set the test system is STAT3 phosphorylation. The data set can be described thus: Western blot of STAT3 phosphorylation in ALDH+/CD44+/CD24− cells. It is filed as cell-based, human. The settings on record: ALDH+/CD44+/CD24− subpopulation of MDA-MB-231 and SUM159; 0.5–5 µM. How it is done: as §3
(§4) After sorting by flow cytometry, ALDH^+ and ALDH^+/CD44^+/CD24^− stem-like cells were cultured in serum-free stem cell medium in ultra-low attachment six-well plates (Corning) to maintain cancer stem cell characteristics. […]
A general note: In western blotting, separated proteins are transferred to a membrane and probed.

Data set [4] deals with ALDH+ subpopulation of MDA-MB-231, SUM159, and SK-BR-3 cells. The data set can be described thus: Cleaved caspase-3 in ALDH+ cells. It is filed as cell-based, human. The settings on record: LLL12 5 µmol/L 24 hours, ShRNA 48 hours then puromycin. The procedure: as §3, §4
For data set [5] the following is noted: 5 mg/kg IP daily; data not shown.
The test system of data set [6] is ERK 1/2 (T202/Y204) phosphorylation. Kind of data set: Western blot of ERK phosphorylation in un-separated breast cancer cells. The class given is cell-based, human. The settings on record: 10 µM, 24 hours. How it is done:
After sorting by flow cytometry, ALDH^+ and ALDH^+/CD44^+/CD24^− stem-like cells were cultured in serum-free stem cell medium in ultra-low attachment six-well plates (Corning) to maintain cancer stem cell characteristics. ALDH^−, ALDH^−/CD44^+/CD24^+cells and un-separated cells were cultured in regular medium and replaced with identical stem cell medium for three days before being harvested. To assess the effects of STAT3 inhibitors, ALDH^+ and ALDH^+/CD44^+/CD24^− subpopulations of breast cancer cells were treated with LLL12 (5 µmol/L) of or static (10 µmol/L) for 24 hours. STAT3, or control GFP shRNA lentivirus (CTL ShRNA) was introduced into ALDH^+ breast cancer stem-like cells for 48 hours, then followed by selection with puromycin (0.2 µg/ml) for 72 hours. Antibodies (Cell Signaling Tech.) against phospho-specific STAT3 (Tyrosine 705) (P-STAT3, Y705), ERK1/2 (Threonine 202/Tyrosine 204), cleaved Poly (ADP-ribose) polymerase (PARP), ALDH1, cleaved caspase-3, and GAPDH were used for western blots.
LLL12 was synthesized in Dr. Pui-Kai Li’s laboratory (College of Pharmacy, The Ohio State University). Un-separated cells were treated with 10 µM of LLL12 or DMSO for 24 hours, and the phosphorylation of STAT3 (Y705), and ERK 1/2 (T202/Y204), and expression of STAT3 downstream genes, cleaved caspase-3, and PARP were detected by Western blots. (JPG) Click here for additional data file.

The target of another data set is EGFR (Homo sapiens, UniProt P00533). Kind of data set: Kinase profiler assay, EGFR. The conditions noted are these: bound stated jointly for the other protein kinases; Table S3. It is filed as biochemical. How it is done:
as §1

In another data set the test system is STAT3. The settings on record: cited from earlier work.
Data set [7] concerns STAT3 phosphorylation (Y705). Kind of data set: Western blot of STAT3 phosphorylation in ALDH+ cells. The class given is cell-based, human. The settings on record: LLL12 5 µmol/L or Stattic 10 µmol/L 24 hours, ShRNA 48 hours then puromycin. The procedure: as §3, §4

Bounds are passed on as bounds.

As a reminder, the IC50 is the concentration at which inhibition is half-maximal. Low readings indicate greater potency in that assay, high ones weaker potency in that assay.

EGFR, sequence (P00533 25-1210): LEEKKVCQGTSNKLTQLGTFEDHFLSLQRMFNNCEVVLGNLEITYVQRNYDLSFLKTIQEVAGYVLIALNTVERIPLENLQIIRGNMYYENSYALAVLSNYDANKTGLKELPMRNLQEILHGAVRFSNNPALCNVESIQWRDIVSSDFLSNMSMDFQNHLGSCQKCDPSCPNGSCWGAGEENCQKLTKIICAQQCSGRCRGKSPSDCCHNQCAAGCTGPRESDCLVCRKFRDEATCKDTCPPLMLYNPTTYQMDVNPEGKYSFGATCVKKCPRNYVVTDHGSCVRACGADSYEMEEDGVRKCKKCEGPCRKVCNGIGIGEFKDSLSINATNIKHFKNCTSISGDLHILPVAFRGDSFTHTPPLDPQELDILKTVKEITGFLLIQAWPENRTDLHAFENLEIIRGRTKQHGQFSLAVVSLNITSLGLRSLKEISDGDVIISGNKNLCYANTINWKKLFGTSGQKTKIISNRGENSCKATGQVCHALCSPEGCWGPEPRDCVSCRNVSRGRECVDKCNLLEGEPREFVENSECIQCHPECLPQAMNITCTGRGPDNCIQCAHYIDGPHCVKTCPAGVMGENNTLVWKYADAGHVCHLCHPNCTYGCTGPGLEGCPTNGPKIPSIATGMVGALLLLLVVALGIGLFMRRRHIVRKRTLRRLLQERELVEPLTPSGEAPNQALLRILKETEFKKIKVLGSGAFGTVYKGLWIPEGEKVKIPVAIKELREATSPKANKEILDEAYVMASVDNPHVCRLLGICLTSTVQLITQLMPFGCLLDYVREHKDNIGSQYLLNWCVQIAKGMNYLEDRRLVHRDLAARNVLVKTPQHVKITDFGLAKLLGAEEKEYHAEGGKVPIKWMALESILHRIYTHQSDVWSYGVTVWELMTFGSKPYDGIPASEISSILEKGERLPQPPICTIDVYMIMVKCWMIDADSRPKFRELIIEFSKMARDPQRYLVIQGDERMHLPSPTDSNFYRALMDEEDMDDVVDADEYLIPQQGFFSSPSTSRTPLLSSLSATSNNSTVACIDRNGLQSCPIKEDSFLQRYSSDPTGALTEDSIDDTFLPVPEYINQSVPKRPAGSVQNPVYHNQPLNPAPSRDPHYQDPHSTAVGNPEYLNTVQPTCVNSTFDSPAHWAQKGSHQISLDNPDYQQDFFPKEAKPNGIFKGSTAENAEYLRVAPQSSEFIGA
Bmx, sequence (P51813 whole entry): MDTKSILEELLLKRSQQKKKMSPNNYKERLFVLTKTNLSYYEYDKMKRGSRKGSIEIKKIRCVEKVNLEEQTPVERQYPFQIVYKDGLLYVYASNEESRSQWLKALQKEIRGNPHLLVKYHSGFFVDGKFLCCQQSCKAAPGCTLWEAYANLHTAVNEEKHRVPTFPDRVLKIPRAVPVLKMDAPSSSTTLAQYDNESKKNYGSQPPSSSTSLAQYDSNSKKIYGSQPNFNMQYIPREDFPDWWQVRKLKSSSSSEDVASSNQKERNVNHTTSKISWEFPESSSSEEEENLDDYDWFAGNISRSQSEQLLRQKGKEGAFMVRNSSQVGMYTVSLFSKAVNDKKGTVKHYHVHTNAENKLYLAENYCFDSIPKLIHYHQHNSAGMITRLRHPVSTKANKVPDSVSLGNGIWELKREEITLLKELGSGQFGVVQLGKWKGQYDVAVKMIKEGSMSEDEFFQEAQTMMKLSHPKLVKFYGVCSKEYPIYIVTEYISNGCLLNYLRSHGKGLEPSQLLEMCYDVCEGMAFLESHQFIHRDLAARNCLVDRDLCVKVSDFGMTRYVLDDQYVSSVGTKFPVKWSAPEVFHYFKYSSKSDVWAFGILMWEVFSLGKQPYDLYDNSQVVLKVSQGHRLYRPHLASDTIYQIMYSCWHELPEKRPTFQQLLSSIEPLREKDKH
Yes, sequence (P07947 whole entry): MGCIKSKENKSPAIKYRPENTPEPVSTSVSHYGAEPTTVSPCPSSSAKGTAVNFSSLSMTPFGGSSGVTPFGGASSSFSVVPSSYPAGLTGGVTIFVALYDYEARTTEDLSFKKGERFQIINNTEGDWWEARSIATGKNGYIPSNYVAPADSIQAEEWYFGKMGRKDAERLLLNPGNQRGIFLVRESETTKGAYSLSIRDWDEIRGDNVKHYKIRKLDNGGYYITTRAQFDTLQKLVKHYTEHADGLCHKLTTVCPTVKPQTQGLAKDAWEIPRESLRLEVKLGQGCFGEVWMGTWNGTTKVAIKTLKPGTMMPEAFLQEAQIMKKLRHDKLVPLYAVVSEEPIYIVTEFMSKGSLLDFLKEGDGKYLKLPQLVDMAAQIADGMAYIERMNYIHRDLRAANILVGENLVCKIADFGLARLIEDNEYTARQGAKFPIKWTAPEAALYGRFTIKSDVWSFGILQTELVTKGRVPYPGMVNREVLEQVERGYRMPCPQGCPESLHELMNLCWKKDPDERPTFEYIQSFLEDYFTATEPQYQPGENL

Regarding `NS(=O)(=O)c1cccc2c1C(=O)c1cccc(O)c1C2=O` [LLL12], the IC50 was more than 100 µM on Syk; more than 100 µM on Bmx; not below 77.9 µM against mTOR; more than 100 µM against Yes; not below 77.9 µM against EGFR. Besides, the “expression of STAT3 target genes Cyclin D1, survivin, Bcl-2, Bcl-XL, MMP-2, and MMP-9” value in the data set on STAT3 target genes (ALDH+ breast cancer cells) is listed as “down-regulated”. Also, in the data set with STAT3 target genes (ALDH+ breast cancer stem-like cells), the “Twist1, Notch-1, and Notch-3 expression” value is given as “inhibited”. The “ALDH+ subpopulation (percentage)” value in data set [1] is given as “decrease”. Also, the tumorsphere formation result in [2] was “suppress”. Also, in the data set on STAT3-regulated genes, the “expression of Cyclin D1, survivin, Bcl-2, Bcl-XL and Notch1” value is given as “down-regulated”. The “STAT3 phosphorylation in tumor” value in data set [3] is on record as “significant suppresses”. For the same compound, the tumor mass result in [3] (15 days, P<0.05) is given as “significant suppresses”. In data set [3] (15 days, P<0.05), the tumor volume entry is listed as “significant suppresses”. Further, in the data set on STAT3 phosphorylation, the STAT3 phosphorylation entry is on record as “inhibited”. In [4], the “cleaved caspase-3 in ALDH+ cells” value is “induced cleaved caspase-3”. In data set [5], the “body weight compared to vehicle control” value was “did not differ”. For the same compound, the “phosphorylation of ERK” value in data set [6] is listed as “did not inhibit”. Moreover, in the data set on STAT3, the “STAT3 DNA binding activity” value is “inhibited”. Moreover, the “STAT3 phosphorylation in ALDH+ cells” value in data set [7] was “inhibited”.

These data come from PMC3871589, “Evaluation of STAT3 Signaling in ALDH+ and ALDH+/CD44+/CD24− Subpopulations of Breast Cancer Cells” (PLoS ONE, 2013).
